In the CheMixHub ionic liquid set:
± gives the uncertainty stated by the source.

Assay: xn = mol fraction of the nth substance listed
Conditions: 100 kPa

CCCCCCCC[n+]1ccccc1.[Br-] + NCC(=O)NCC(=O)O + O
electrical conductivity [S/m]
Conditions	288.15 K	293.15 K	298.15 K	303.15 K	308.15 K
x2 = 0.0008948, x1 = 0.00597	–	–	–	–	2.18 ± 0.13
x2 = 0.0008948, x1 = 0.005972	–	–	1.72 ± 0.1	1.92 ± 0.12	–
x2 = 0.0008948, x1 = 0.005974	1.34 ± 0.08	1.52 ± 0.091	–	–	–
x2 = 0.000895, x1 = 0.005737	–	–	–	–	2.13 ± 0.13
x2 = 0.000895, x1 = 0.005739	–	1.48 ± 0.089	1.68 ± 0.1	1.88 ± 0.11	–
x2 = 0.000895, x1 = 0.005741	1.31 ± 0.078	–	–	–	–
x2 = 0.0008953, x1 = 0.005443	–	–	1.62 ± 0.098	1.82 ± 0.11	2.05 ± 0.12
x2 = 0.0008953, x1 = 0.005445	1.27 ± 0.076	1.44 ± 0.086	–	–	–
x2 = 0.0008956, x1 = 0.005122	–	–	1.57 ± 0.094	1.76 ± 0.11	1.98 ± 0.12
x2 = 0.0008956, x1 = 0.005124	1.22 ± 0.073	1.39 ± 0.083	–	–	–
x2 = 0.0008959, x1 = 0.004789	–	1.34 ± 0.08	1.51 ± 0.091	1.69 ± 0.1	1.88 ± 0.11
x2 = 0.0008959, x1 = 0.00479	1.18 ± 0.071	–	–	–	–
x2 = 0.0008962, x1 = 0.004442	1.14 ± 0.068	1.29 ± 0.077	1.45 ± 0.087	1.62 ± 0.097	1.79 ± 0.11
x2 = 0.0008965, x1 = 0.004038	–	–	–	–	1.69 ± 0.1
x2 = 0.0008965, x1 = 0.004039	1.07 ± 0.064	1.21 ± 0.073	1.36 ± 0.082	1.52 ± 0.091	–
x2 = 0.000897, x1 = 0.00359	–	–	1.26 ± 0.075	1.4 ± 0.084	1.55 ± 0.093
x2 = 0.000897, x1 = 0.003592	0.984 ± 0.059	1.12 ± 0.067	–	–	–
x2 = 0.0008974, x1 = 0.003106	0.886 ± 0.053	1 ± 0.06	1.13 ± 0.068	1.26 ± 0.076	1.39 ± 0.084
x2 = 0.0008979, x1 = 0.002563	0.768 ± 0.046	0.87 ± 0.052	0.975 ± 0.059	1.09 ± 0.065	1.19 ± 0.071
x2 = 0.0008984, x1 = 0.002015	0.637 ± 0.038	0.721 ± 0.043	0.807 ± 0.049	0.898 ± 0.054	0.973 ± 0.059
x2 = 0.0008987, x1 = 0.001634	0.54 ± 0.032	0.61 ± 0.037	0.682 ± 0.041	0.758 ± 0.046	0.823 ± 0.05
x2 = 0.0008991, x1 = 0.001218	0.424 ± 0.025	0.477 ± 0.029	0.533 ± 0.032	0.592 ± 0.036	0.657 ± 0.04
x2 = 0.0008995, x1 = 0.0007371	0.298 ± 0.018	0.332 ± 0.02	0.369 ± 0.022	0.406 ± 0.025	0.467 ± 0.028
x2 = 0.001787, x1 = 0.006313	–	–	–	–	2.23 ± 0.13
x2 = 0.001787, x1 = 0.006315	–	–	1.76 ± 0.11	1.95 ± 0.12	–
x2 = 0.001787, x1 = 0.006317	1.36 ± 0.082	1.53 ± 0.092	–	–	–
x2 = 0.001788, x1 = 0.005888	–	–	1.69 ± 0.1	1.87 ± 0.11	2.13 ± 0.13
x2 = 0.001788, x1 = 0.00589	1.31 ± 0.078	1.47 ± 0.088	–	–	–
x2 = 0.001789, x1 = 0.005263	–	–	–	1.76 ± 0.1	1.98 ± 0.12
x2 = 0.001789, x1 = 0.005265	1.23 ± 0.074	1.38 ± 0.083	1.57 ± 0.094	–	–
x2 = 0.001789, x1 = 0.005589	–	–	1.63 ± 0.098	1.81 ± 0.11	2.05 ± 0.12
x2 = 0.001789, x1 = 0.005591	1.27 ± 0.076	1.43 ± 0.086	–	–	–
x2 = 0.00179, x1 = 0.004922	–	–	1.51 ± 0.091	1.69 ± 0.1	1.88 ± 0.11
x2 = 0.00179, x1 = 0.004924	1.18 ± 0.071	1.33 ± 0.08	–	–	–
x2 = 0.001791, x1 = 0.004115	–	1.2 ± 0.072	1.35 ± 0.081	1.51 ± 0.091	1.68 ± 0.1
x2 = 0.001791, x1 = 0.004116	1.06 ± 0.064	–	–	–	–
x2 = 0.001791, x1 = 0.004536	–	–	–	–	1.78 ± 0.11
x2 = 0.001791, x1 = 0.004537	1.13 ± 0.068	1.27 ± 0.076	1.44 ± 0.087	1.61 ± 0.097	–
x2 = 0.001792, x1 = 0.003673	–	–	–	1.4 ± 0.084	1.54 ± 0.093
x2 = 0.001792, x1 = 0.003675	0.984 ± 0.059	1.12 ± 0.067	1.26 ± 0.075	–	–
x2 = 0.001793, x1 = 0.003161	0.886 ± 0.053	0.997 ± 0.06	1.12 ± 0.067	1.25 ± 0.075	1.38 ± 0.083
x2 = 0.001794, x1 = 0.002599	0.766 ± 0.046	0.862 ± 0.052	0.967 ± 0.058	1.08 ± 0.065	1.18 ± 0.071
x2 = 0.001795, x1 = 0.001992	0.62 ± 0.037	0.699 ± 0.042	0.783 ± 0.047	0.87 ± 0.052	0.87 ± 0.052
x2 = 0.001796, x1 = 0.001587	0.515 ± 0.031	0.581 ± 0.035	0.65 ± 0.039	0.724 ± 0.043	0.724 ± 0.043
x2 = 0.001797, x1 = 0.0007376	0.292 ± 0.018	0.326 ± 0.02	0.36 ± 0.022	0.389 ± 0.024	0.389 ± 0.024
x2 = 0.001797, x1 = 0.001185	0.405 ± 0.024	0.456 ± 0.028	0.51 ± 0.031	0.566 ± 0.034	0.566 ± 0.034
